Reference: PubChem BioAssay (NCI)
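Following 48 hours of exposure in 96-well plates, responses at five concentrations were used to interpolate endpoints linearly. Here, GI50 denotes the concentration required for 50% inhibition of growth. At the TGI there is no net growth.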

Experiments:
Experiment in all cases: DTP human tumour cell line panel, 48 h
786-0 renal = system: 786-0 renal
A498 renal = system: A498 renal
A549 NSCLC = system: A549 NSCLC
ACHN renal = system: ACHN renal
BT-549 breast = system: BT-549 breast
CAKI-1 renal = system: CAKI-1 renal
CCRF-CEM leukemia = system: CCRF-CEM leukemia
COLO 205 colon = system: COLO 205 colon
DU-145 prostate = system: DU-145 prostate
EKVX NSCLC = system: EKVX NSCLC
HCC-2998 colon = system: HCC-2998 colon
HCT-116 colon = system: HCT-116 colon
HCT-15 colon = system: HCT-15 colon
HL-60(TB) leukemia = system: HL-60(TB) leukemia
HOP-62 NSCLC = system: HOP-62 NSCLC
HOP-92 NSCLC = system: HOP-92 NSCLC
HS 578T breast = system: HS 578T breast
HT29 colon = system: HT29 colon
IGROV1 ovarian = system: IGROV1 ovarian
K-562 leukemia = system: K-562 leukemia
KM12 colon = system: KM12 colon
LOX IMVI melanoma = system: LOX IMVI melanoma
M14 melanoma = system: M14 melanoma
MALME-3M melanoma = system: MALME-3M melanoma
MCF7 breast = system: MCF7 breast
MDA-MB-231 breast = system: MDA-MB-231 breast
MDA-MB-435 = system: MDA-MB-435
MOLT-4 leukemia = system: MOLT-4 leukemia
NCI-H226 lung = system: NCI-H226 lung
NCI-H23 lung = system: NCI-H23 lung
NCI-H460 lung = system: NCI-H460 lung
NCI-H522 lung = system: NCI-H522 lung
NCI/ADR-RES ovarian = system: NCI/ADR-RES ovarian
OVCAR-3 ovarian = system: OVCAR-3 ovarian
OVCAR-4 ovarian = system: OVCAR-4 ovarian
OVCAR-5 ovarian = system: OVCAR-5 ovarian
OVCAR-8 ovarian = system: OVCAR-8 ovarian
PC-3 prostate = system: PC-3 prostate
RPMI-8226 leukemia = system: RPMI-8226 leukemia
RXF 393 renal = system: RXF 393 renal
SF-268 CNS = system: SF-268 CNS
SF-295 CNS = system: SF-295 CNS
SF-539 CNS = system: SF-539 CNS
SK-MEL-2 melanoma = system: SK-MEL-2 melanoma
SK-MEL-28 melanoma = system: SK-MEL-28 melanoma
SK-MEL-5 melanoma = system: SK-MEL-5 melanoma
SK-OV-3 ovarian = system: SK-OV-3 ovarian
SN12C renal = system: SN12C renal
SNB-19 CNS = system: SNB-19 CNS
SNB-75 CNS = system: SNB-75 CNS
SR leukemia = system: SR leukemia
SW-620 colon = system: SW-620 colon
T-47D breast = system: T-47D breast
TK-10 renal = system: TK-10 renal
U251 CNS = system: U251 CNS
UACC-257 melanoma = system: UACC-257 melanoma
UACC-62 melanoma = system: UACC-62 melanoma
UO-31 renal = system: UO-31 renal

COc1cnc2c(c1)C(=O)c1c-2n(CCCn2ccnc2)c(=O)c2cc(OC)c(OC)cc12
GI50 (786-0 renal): 55.1 nM
TGI (786-0 renal): 1280 nM
GI50 (A498 renal): 9.44 µM
TGI (A498 renal): 23.3 µM
GI50 (A549 NSCLC): 465 nM
TGI (A549 NSCLC): 11.7 µM
GI50 (ACHN renal): 37.6 nM
TGI (ACHN renal): 1090 nM
GI50 (BT-549 breast): 416 nM
TGI (BT-549 breast): 6.62 µM
GI50 (CAKI-1 renal): 39.1 nM
TGI (CAKI-1 renal): 3.41 µM
GI50 (CCRF-CEM leukemia): 35.3 nM
TGI (CCRF-CEM leukemia): 4.47 µM
GI50 (COLO 205 colon): 654 nM
TGI (COLO 205 colon): 2380 nM
GI50 (DU-145 prostate): 60.8 nM
TGI (DU-145 prostate): 1900 nM
GI50 (EKVX NSCLC): 1680 nM
TGI (EKVX NSCLC): 7.24 µM
GI50 (HCC-2998 colon): 899 nM
TGI (HCC-2998 colon): 3.06 µM
GI50 (HCT-116 colon): 113 nM
TGI (HCT-116 colon): 1710 nM
GI50 (HCT-15 colon): 1210 nM
TGI (HCT-15 colon): 3.14 µM
GI50 (HL-60(TB) leukemia): 45 nM
TGI (HL-60(TB) leukemia): 3.67 µM
GI50 (HOP-62 NSCLC): 41.9 nM
TGI (HOP-62 NSCLC): 1300 nM
GI50 (HOP-92 NSCLC): 935 nM
TGI (HOP-92 NSCLC): 10.8 µM
GI50 (HS 578T breast): 4.77 µM
TGI (HS 578T breast): 17.5 µM
GI50 (HT29 colon): 242 nM
TGI (HT29 colon): 1750 nM
GI50 (IGROV1 ovarian): 1240 nM
TGI (IGROV1 ovarian): 6.21 µM
GI50 (K-562 leukemia): 85.2 nM
TGI (K-562 leukemia): 5.86 µM
GI50 (KM12 colon): 1670 nM
TGI (KM12 colon): 7.69 µM
GI50 (LOX IMVI melanoma): 42.2 nM
TGI (LOX IMVI melanoma): 1120 nM
GI50 (M14 melanoma): 60 nM
TGI (M14 melanoma): 1410 nM
GI50 (MALME-3M melanoma): 1390 nM
TGI (MALME-3M melanoma): 3.04 µM
GI50 (MCF7 breast): 29.8 nM
TGI (MCF7 breast): 1400 nM
GI50 (MDA-MB-231 breast): 3.55 µM
TGI (MDA-MB-231 breast): 11.9 µM
GI50 (MDA-MB-435): 710 nM
TGI (MDA-MB-435): 4.79 µM
GI50 (MOLT-4 leukemia): 36.7 nM
TGI (MOLT-4 leukemia): 2530 nM
GI50 (NCI-H226 lung): 190 nM
TGI (NCI-H226 lung): 5 µM
GI50 (NCI-H23 lung): 72.1 nM
TGI (NCI-H23 lung): 1620 nM
GI50 (NCI-H460 lung): 36.5 nM
TGI (NCI-H460 lung): 1320 nM
GI50 (NCI-H522 lung): 80.3 nM
TGI (NCI-H522 lung): 1610 nM
GI50 (NCI/ADR-RES ovarian): 361 nM
TGI (NCI/ADR-RES ovarian): 4.41 µM
GI50 (OVCAR-3 ovarian): 594 nM
TGI (OVCAR-3 ovarian): 2010 nM
GI50 (OVCAR-4 ovarian): 1540 nM
TGI (OVCAR-4 ovarian): 3.53 µM
GI50 (OVCAR-5 ovarian): 1030 nM
TGI (OVCAR-5 ovarian): 3.1 µM
GI50 (OVCAR-8 ovarian): 419 nM
TGI (OVCAR-8 ovarian): 2950 nM
GI50 (PC-3 prostate): 631 nM
TGI (PC-3 prostate): 8.45 µM
GI50 (RPMI-8226 leukemia): 167 nM
TGI (RPMI-8226 leukemia): 3.58 µM
GI50 (RXF 393 renal): 354 nM
TGI (RXF 393 renal): 2190 nM
GI50 (SF-268 CNS): 72.9 nM
TGI (SF-268 CNS): 14.1 µM
GI50 (SF-295 CNS): 38.1 nM
TGI (SF-295 CNS): 1410 nM
GI50 (SF-539 CNS): 52.7 nM
TGI (SF-539 CNS): 889 nM
GI50 (SK-MEL-2 melanoma): 17.3 µM
TGI (SK-MEL-2 melanoma): 31.5 µM
GI50 (SK-MEL-28 melanoma): 1310 nM
TGI (SK-MEL-28 melanoma): 3.61 µM
GI50 (SK-MEL-5 melanoma): 258 nM
TGI (SK-MEL-5 melanoma): 1480 nM
GI50 (SK-OV-3 ovarian): 119 nM
TGI (SK-OV-3 ovarian): 2270 nM
GI50 (SN12C renal): 56.3 nM
TGI (SN12C renal): 4.02 µM
GI50 (SNB-19 CNS): 68 nM
TGI (SNB-19 CNS): 13.3 µM
GI50 (SNB-75 CNS): 67.3 nM
TGI (SNB-75 CNS): 1210 nM
GI50 (SR leukemia): 20.4 nM
TGI (SR leukemia): 6.64 µM
GI50 (SW-620 colon): 127 nM
TGI (SW-620 colon): 2130 nM
GI50 (T-47D breast): 41.1 nM
TGI (T-47D breast): 1900 nM
GI50 (TK-10 renal): 2940 nM
TGI (TK-10 renal): 8.09 µM
GI50 (U251 CNS): 48.1 nM
TGI (U251 CNS): 3.28 µM
GI50 (UACC-257 melanoma): 627 nM
TGI (UACC-257 melanoma): 2780 nM
GI50 (UACC-62 melanoma): 40.1 nM
TGI (UACC-62 melanoma): 1470 nM
GI50 (UO-31 renal): 65.9 nM
TGI (UO-31 renal): 1370 nM
